Measurements reported in ChEMBL document CHEMBL4339189, “Dissymmetric pyridyl-substituted 3,5-bis(arylidene)-4-piperidones as anti-hepatoma agents by inhibiting NF-κB pathway activation” (Eur J Med Chem, 2019).
The source made the active and inactive calls. No cut-off for these calls is given here.

Key:
[1] = test system: HepG2; experiment: Cytotoxicity against human HepG2 cells assessed as reduction in cell viability incubated for 24 hrs by MTT assay; type: functional, cell-based; details: HepG2, 24 h
[2] = test system: QGY-7703; experiment: Cytotoxicity against human QGY7703 cells assessed as reduction in cell viability incubated for 24 hrs by MTT assay; type: functional, cell-based; details: QGY-7703, 24 h
[3] = test system: SMMC-7721; experiment: Cytotoxicity against human SMMC7721 cells assessed as reduction in cell viability incubated for 24 hrs by MTT assay; type: functional, cell-based; details: SMMC-7721, 24 h
[4] = Cytotoxicity against human HHL5 cells assessed as reduction in cell viability incubated for 24 hrs by MTT assay; type: cell-based; details: HHL-5, 24 h
[5] = test system: L02; experiment: Cytotoxicity against human LO2 cells assessed as reduction in cell viability incubated for 24 hrs by MTT assay; type: cell-based; details: L02, 24 h
[6] = test system: RAW264.7; experiment: Cytotoxicity against mouse RAW264.7 cells assessed as reduction in cell viability at 6.0 uM incubated for 24 hrs by MTT assay; type: cell-based; details: raw264.7, 24 h
[7] = test system: RAW264.7; experiment: Antiinflammatory activity in mouse RAW264.7 cells assessed as inhibition of LPS-stimulated TNF-alpha production at 6.0 uM preincubated for 2 hrs followed by LPS stimulaton measured after 22 hrs by ELISA relative to control; type: functional
[8] = test system: RAW264.7; experiment: Antiinflammatory activity in mouse RAW264.7 cells assessed as inhibition of LPS-stimulated IL-6 production 6.0 uM preincubated for 2 hrs followed by LPS stimulaton measured after 22 hrs by ELISA relative to control; type: functional

Compound	IC50 [1] [µM]	IC50 [2] [µM]	IC50 [3] [µM]	IC50 [4] [µM]	IC50 [5] [µM]	Activity [6]	inhibition [7]	inhibition [8]	inhibition at 6 µM [7] [%]	inhibition (INH) [8] [%]
CC(=O)Nc1ccc(S(=O)(=O)N2C/C(=C\c3cccnc3)C(=O)/C(=C/c3ccccc3F)C2)cc1	4.56	9.64	10.9	14.2	15.6	Non-Toxic	Active	Active	–	–
O=C1/C(=C/c2cccnc2)CN(S(=O)(=O)c2ccc(F)cc2)C/C1=C\c1ccccc1C(F)(F)F	2.34	6.03	6.39	12.1	16.1	Non-Toxic	Active	Active	–	–
O=C1/C(=C/c2cccnc2)CN(S(=O)(=O)c2ccc(Cl)cc2)C/C1=C\c1ccccc1C(F)(F)F	3.62	3.44	4.88	11.1	11.9	Non-Toxic	Active	Active	–	–
CN1C/C(=C\c2ccncc2)C(=O)/C(=C/c2ccccc2F)C1	4.6	4.9	7	18.5	14.9	Non-Toxic	Active	Active	–	–
O=C1/C(=C/c2cccnc2)CN(S(=O)(=O)c2ccc([N+](=O)[O-])cc2)C/C1=C\c1ccccc1F	12.8	5.6	> 20	> 20	> 20	Non-Toxic	inactive	inactive	–	–
O=C1/C(=C/c2cccnc2)CN(S(=O)(=O)c2ccc(Cl)cc2)C/C1=C\c1ccccc1F	12.4	12.1	16.1	> 20	> 20	Non-Toxic	inactive	inactive	–	–
COc1cc(/C=C2\CN(C)C/C(=C\c3ccncc3)C2=O)cc(OC)c1	9.5	8.4	5.81	11.1	13.4	Non-Toxic	Active	Active	–	–
CN1C/C(=C\c2cccnc2)C(=O)/C(=C/c2cc([N+](=O)[O-])ccc2F)C1	6.63	11.1	6.17	14.2	15.7	Non-Toxic	Active	Active	–	–
O=C1/C(=C/c2cccnc2)CN(S(=O)(=O)c2ccc(F)cc2)C/C1=C\c1ccccc1F	15.6	15.3	9.9	12.6	15.6	Non-Toxic	inactive	inactive	–	–
CN1C/C(=C\c2cccnc2)C(=O)/C(=C/c2ccccc2F)C1	4.81	4.47	5.42	13.5	15.9	Non-Toxic	Active	Active	–	–
O=C1/C(=C/c2ccncc2)CN(S(=O)(=O)c2ccc(Br)cc2)C/C1=C\c1ccccc1F	9.3	11.5	12.6	> 20	19.4	Non-Toxic	inactive	inactive	–	–
CN1C/C(=C\c2ccc(C(F)(F)F)cc2)C(=O)/C(=C/c2cccnc2)C1	4.79	1.66	4.83	14.2	15.6	Non-Toxic	–	–	< 30	<30
Cc1ccc(S(=O)(=O)N2C/C(=C\c3cccnc3)C(=O)/C(=C/c3ccccc3F)C2)cc1	4.2	9.7	10.3	15.3	14.9	Non-Toxic	Active	Active	–	–
COc1cc(/C=C2\CN(C)C/C(=C\c3cccnc3)C2=O)cc(OC)c1	6.91	7.9	17.9	> 20	18.4	Non-Toxic	Active	Active	–	–
O=C1/C(=C/c2cccnc2)CN(S(=O)(=O)c2ccccc2)C/C1=C\c1ccccc1F	8.21	4.8	19.1	14	15.3	Non-Toxic	inactive	inactive	–	–
O=C1/C(=C/c2cccnc2)CN(S(=O)(=O)c2ccccc2)C/C1=C\c1ccccc1C(F)(F)F	5.37	6.24	10.9	14.3	12.5	Non-Toxic	Active	Active	–	–
O=C1/C(=C/c2ccncc2)CN(S(=O)(=O)c2ccc(C(F)(F)F)cc2)C/C1=C\c1ccccc1F	4.03	9.5	11.1	13.4	18.6	Non-Toxic	Active	Active	–	–
O=C1/C(=C/c2ccncc2)CN(S(=O)(=O)c2ccccc2)C/C1=C\c1ccccc1F	5.8	8.4	17.5	> 20	15.9	Non-Toxic	inactive	inactive	–	–
N#Cc1ccc(S(=O)(=O)N2C/C(=C\c3ccncc3)C(=O)/C(=C/c3ccccc3F)C2)cc1	4.5	8.5	16.2	15.7	> 20	Non-Toxic	Active	Active	–	–
N#Cc1ccc(S(=O)(=O)N2C/C(=C\c3cccnc3)C(=O)/C(=C/c3ccccc3C(F)(F)F)C2)cc1	5.06	6.15	9.65	11.2	13.2	Non-Toxic	Active	Active	–	–
COc1cc(/C=C2\CN(C)C/C(=C\c3cccnc3)C2=O)cc(OC)c1OC	9.52	4.3	20.4	11.3	14.4	Non-Toxic	Active	Active	–	–
CN1C/C(=C\c2ccncc2)C(=O)/C(=C/c2cc([N+](=O)[O-])ccc2F)C1	5.2	5.7	14.7	15.2	17.6	Non-Toxic	–	–	< 30	<30
